For twelve molecules, inhibition results are on record in patent US20140135310A1, “SULPHONAMIDE DERIVATIVES OF ALICYCLIC AMINES FOR THE TREATMENT OF CENTRAL NERVOUS SYSTEM DISEASES” (Adamed Sp. z o.o., priority 2011, published 2014).

The target in one assay is T1, 5-HT2A receptor (Homo sapiens, UniProt P28223).
T1 construct: purchased PerkinElmer
Nature of the assay: Radioligand binding assay, serotoninergic 5-HT2A receptors. As to conditions: binding assay result in %, Table 5a. The source says:
(§1) The specific ligand binding to the receptors is defined as the difference between the total binding and the non-specific binding determined in the presence of the excess of unlabelled ligand.
(§2) The results are expressed as a percent of control specific binding ((measured specific binding/control specific binding)×100) and as a percent inhibition of control specific binding (100−((measured specific binding/control specific binding)×100)) obtained in the presence of the test compounds. The specific ligand binding to the receptors is defined as the difference between the total binding and the nonspecific binding determined in the presence of an excess of unlabelled ligand. Scintillation counting was the method of detection of ligand binding. The IC50 values (concentration causing a half-maximal inhibition of control specific binding) were determined by non-linear regression analysis of the competition curves generated with mean replicate values using Hill equation curve fitting (Y=D+[(A−D)/(1+(C/C50)nH)], where Y=specific binding, D=minimum specific binding, A=maximum specific binding, C=compound concentration, C50=IC50, and nH=slope factor). This analysis was performed using a software developed at Cerep (Hill software) and validated by comparison with data generated by the commercial software SigmaPlot® 4.0 for Windows® (© 1997 by SPSS Inc.). The inhibition constants (Ki) were calculated using the Cheng Prusoff equation (Ki=IC50/(1+(L/KD)), where L=concentration of radioligand in the assay, and KD=affinity of the radioligand for the receptor). A scatchard plot was used to determine the Kd.
5-HT2A: Bryan L. Roth. Assay Protocol Book. University of North Carolina At Chapel Hill. National Institute of Mental Health. Psychoactive Drug Screening Program. Available on-line at 31 Aug. 2008: http://pdsp.med.unc.edu/UNC-CH%20Protocol%20Book.pdf

The target in assay [1] is dopaminergic receptors D3 (Homo sapiens, UniProt P35462). Nature of the assay: Radioligand binding assay, dopaminergic D3 receptors. As to conditions: test compound 1×10^−6 M.
Sequence of dopaminergic receptors D3 (P35462 whole entry): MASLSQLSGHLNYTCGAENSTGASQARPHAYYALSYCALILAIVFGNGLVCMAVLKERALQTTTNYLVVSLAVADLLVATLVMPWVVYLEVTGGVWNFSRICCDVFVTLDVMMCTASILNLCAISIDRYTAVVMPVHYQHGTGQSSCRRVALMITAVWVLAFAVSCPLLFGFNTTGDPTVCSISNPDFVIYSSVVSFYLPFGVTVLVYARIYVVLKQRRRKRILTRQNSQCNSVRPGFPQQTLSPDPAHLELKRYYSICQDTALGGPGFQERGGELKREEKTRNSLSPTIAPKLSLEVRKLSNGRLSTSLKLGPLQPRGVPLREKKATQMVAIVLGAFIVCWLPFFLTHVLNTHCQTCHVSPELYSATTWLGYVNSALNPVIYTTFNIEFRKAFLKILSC
From the text: as §1, §2
(§3) Experimental conditions for tests are given in Table 1, the results of tests for representative compounds are given in Tables 2a and 2b (receptors D2 and D3) and in Table 3 (receptors D4).

The next assay has as its target T2, 5-HT7 receptor (Homo sapiens, UniProt P34969).
T2 construct: purchased PerkinElmer
Nature of the assay: Radioligand binding assay, serotoninergic 5-HT7 receptors.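 Also: test compound at 1 µM.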 As to conditions: binding assay result in %, Table 5a.
From the text: as §1, §2
(§4) Experimental conditions for tests are given in Table 4, and results of tests for representative compounds of the invention are given in Table 5a and 5b (receptors 5-HT1A, 5-HT2A, 5-HT6 and 5-HT7) and in Table 6 (receptors 5-HT2C).
5-HT7: Bryan L. Roth. Assay Protocol Book. University of North Carolina At Chapel Hill. National Institute of Mental Health. Psychoactive Drug Screening Program. Available on-line at 31 Aug. 2008: http://pdsp.med.unc.edu/UNC-CH %20Protocol%20Book.pdf

Assay [2] has as its target T3, serotonin transporter (SERT) (Homo sapiens, UniProt P31645).
T3 construct: expressed in transfected cells; host or cells: CHO cells
Nature of the assay: Radioligand binding assay, serotonin transporter (SERT). As to conditions: binding assay, test compound 1×10^−6 M.
From the text: as §1, §2
Experimental conditions for tests are given in Table 12, and results of tests for representative compounds are given in Tables 13a and 13b.

Assay [3] concerns the target T4, 5-HT1A receptor (rat hippocampus) (Rattus norvegicus, UniProt P19327).
T4 construct: hippocampus; from tissue; host or cells: rat hippocampus
T4 sequence (P19327 1-422): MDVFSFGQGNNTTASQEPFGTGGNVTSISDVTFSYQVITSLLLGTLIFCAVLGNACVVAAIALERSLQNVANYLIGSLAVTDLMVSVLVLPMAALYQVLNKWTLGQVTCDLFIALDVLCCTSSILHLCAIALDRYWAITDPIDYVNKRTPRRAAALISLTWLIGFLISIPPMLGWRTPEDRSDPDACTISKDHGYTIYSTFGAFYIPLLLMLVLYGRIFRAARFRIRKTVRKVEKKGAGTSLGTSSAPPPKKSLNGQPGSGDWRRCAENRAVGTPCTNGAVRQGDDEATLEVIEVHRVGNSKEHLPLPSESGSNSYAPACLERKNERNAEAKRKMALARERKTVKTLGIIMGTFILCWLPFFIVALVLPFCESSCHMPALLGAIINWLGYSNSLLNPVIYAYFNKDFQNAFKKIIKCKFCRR
Nature of the assay: Radioligand binding assay, serotoninergic 5-HT1A receptors.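 Also: test compound at 1 µM.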 As to conditions: binding assay result in %, Table 5a.
From the text: as §1, §2, §4

The target of assay [4] is dopaminergic receptors D2 (Homo sapiens, UniProt P14416). Nature of the assay: Radioligand binding assay, dopaminergic D2 receptors. As to conditions: binding assay, test compound 1×10^−6 M.
Sequence of dopaminergic receptors D2 (P14416 whole entry): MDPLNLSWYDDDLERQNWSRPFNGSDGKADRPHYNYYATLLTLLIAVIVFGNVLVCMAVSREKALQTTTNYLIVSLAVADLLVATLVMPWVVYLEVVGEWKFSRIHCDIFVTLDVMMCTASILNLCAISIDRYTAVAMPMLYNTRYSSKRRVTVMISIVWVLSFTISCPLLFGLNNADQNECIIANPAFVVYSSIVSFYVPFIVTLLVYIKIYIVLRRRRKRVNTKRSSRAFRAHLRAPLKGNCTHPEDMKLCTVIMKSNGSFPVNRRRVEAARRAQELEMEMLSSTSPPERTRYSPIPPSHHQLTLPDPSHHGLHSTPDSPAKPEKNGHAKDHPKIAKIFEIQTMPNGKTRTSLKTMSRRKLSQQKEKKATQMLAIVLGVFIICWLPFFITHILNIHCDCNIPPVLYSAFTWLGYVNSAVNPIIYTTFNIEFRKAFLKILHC
From the text: as §1, §2, §3

Another assay has as its target T5, 5-HT6 receptor (Homo sapiens, UniProt P50406).
T5 construct: purchased PerkinElmer
Nature of the assay: Radioligand binding assay, serotoninergic 5-HT6 receptors.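 Also: test compound at 1 µM.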 As to conditions: binding assay result in %, Table 5a.
From the text: as §1, §2, §4
5-HT6: Bryan L. Roth. Assay Protocol Book. University of North Carolina At Chapel Hill. National Institute of Mental Health. Psychoactive Drug Screening Program. Available on-line at 31 Aug. 2008: http://pdsp.med.unc.edu/UNC-CH %20Protocol%20Book.pdf

T3 sequence (P31645 whole entry): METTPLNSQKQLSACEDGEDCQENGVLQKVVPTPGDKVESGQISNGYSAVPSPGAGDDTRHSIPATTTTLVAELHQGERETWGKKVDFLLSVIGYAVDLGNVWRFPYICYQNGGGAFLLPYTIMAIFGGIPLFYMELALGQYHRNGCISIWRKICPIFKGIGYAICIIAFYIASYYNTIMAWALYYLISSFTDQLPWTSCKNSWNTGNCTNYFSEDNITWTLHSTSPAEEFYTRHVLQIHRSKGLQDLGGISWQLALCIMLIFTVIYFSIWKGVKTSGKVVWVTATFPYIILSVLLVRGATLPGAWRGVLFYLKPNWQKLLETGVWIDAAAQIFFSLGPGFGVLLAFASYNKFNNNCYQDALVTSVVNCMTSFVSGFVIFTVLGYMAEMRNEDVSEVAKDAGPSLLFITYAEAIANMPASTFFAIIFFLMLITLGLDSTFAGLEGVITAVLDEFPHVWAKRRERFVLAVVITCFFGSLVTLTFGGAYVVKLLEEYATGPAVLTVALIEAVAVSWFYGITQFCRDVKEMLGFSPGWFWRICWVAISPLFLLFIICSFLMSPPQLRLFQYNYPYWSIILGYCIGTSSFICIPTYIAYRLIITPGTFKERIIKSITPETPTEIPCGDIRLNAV
T5 sequence (P50406 whole entry): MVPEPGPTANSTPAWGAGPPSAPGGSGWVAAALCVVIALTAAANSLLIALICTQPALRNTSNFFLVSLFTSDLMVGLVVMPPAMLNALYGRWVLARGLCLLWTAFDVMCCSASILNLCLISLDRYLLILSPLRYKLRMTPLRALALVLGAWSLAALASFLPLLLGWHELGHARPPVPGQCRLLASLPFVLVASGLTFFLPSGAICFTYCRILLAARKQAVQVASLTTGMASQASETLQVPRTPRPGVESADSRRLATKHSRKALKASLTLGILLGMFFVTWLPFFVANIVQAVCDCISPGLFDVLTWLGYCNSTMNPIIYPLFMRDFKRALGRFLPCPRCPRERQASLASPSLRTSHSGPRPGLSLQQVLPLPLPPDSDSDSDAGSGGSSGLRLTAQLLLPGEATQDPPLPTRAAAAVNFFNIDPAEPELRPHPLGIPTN
T2 sequence (P34969 whole entry): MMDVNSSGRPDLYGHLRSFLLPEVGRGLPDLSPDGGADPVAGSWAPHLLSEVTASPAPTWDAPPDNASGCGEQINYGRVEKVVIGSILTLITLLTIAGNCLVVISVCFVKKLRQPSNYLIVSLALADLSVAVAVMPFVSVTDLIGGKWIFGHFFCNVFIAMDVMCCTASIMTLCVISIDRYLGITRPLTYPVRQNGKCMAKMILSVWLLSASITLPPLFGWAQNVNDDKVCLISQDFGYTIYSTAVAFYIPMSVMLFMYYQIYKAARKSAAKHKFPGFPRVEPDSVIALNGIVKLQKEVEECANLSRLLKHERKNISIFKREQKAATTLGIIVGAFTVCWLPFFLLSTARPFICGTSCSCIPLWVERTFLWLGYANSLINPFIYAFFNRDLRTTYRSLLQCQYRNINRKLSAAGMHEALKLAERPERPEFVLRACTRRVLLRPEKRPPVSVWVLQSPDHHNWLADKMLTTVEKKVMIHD
T1 sequence (P28223 whole entry): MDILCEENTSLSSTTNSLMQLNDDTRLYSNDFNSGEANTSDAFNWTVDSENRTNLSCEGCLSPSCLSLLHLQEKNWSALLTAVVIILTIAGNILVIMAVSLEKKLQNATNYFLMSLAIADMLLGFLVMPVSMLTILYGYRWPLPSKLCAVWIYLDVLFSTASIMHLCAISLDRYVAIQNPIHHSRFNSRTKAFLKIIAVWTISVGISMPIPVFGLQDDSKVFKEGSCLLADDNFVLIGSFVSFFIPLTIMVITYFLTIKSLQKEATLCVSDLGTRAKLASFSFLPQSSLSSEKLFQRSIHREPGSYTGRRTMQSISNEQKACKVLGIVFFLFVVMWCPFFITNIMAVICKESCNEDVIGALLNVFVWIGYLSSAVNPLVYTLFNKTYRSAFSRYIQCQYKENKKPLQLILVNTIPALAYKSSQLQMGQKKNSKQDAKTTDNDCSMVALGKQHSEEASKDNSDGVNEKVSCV

In general, inhibition refers to the change of the read-out against control, counted positive when it falls. Regarding `O=S(=O)(NCC1CN(CCCc2noc3cc(F)ccc23)C1)c1ccc(Cl)s1` [Compound 155, 5-Chloro-N-[[1-[3-(6-fluoro-1,2-benzoxazol-3-yl)propyl]azetidin-3-yl]methyl]thiophene-2-sulphonamide], the inhibition at 1 µM on 5-HT2A receptor is 89%; in assay [1], 68%; at 5-HT7 receptor, 82%; in assay [2], -12%; in assay [3], 42%; in assay [4], 61%. Moreover, the inhibition at 1 µM at 5-HT6 receptor stood at 62%.

Take `CCCc1ccc(S(=O)(=O)NCC2CN(CCCc3noc4cc(F)ccc34)C2)cc1` [Compound 157, N-[[1-[3-(6-Fluoro-1,2-benzoxazol-3-yl)propyl]azetidin-3-yl]methyl]-4-propyl-benzenesulphonamide]: the inhibition at 1 µM on 5-HT2A receptor came out at 95%; in assay [1] it was 72%; at 5-HT7 receptor, 93%; in assay [2], 25%; in assay [3], 61%; in assay [4] it was 81%. Besides, the inhibition at 1 µM on 5-HT6 receptor stood at 80%.

For the molecule `O=S(=O)(NC1CCN(CCCc2noc3cc(F)ccc23)C1)c1ccc(Cl)cc1` (stereo not drawn) [Compound 208, 4-Chloro-N-[1-[3-(6-fluoro-1,2-benzoxazol-3-yl)propyl]pyrrolidin-3-yl]benzenesulphonamide], the inhibition at 1 µM was 100% on 5-HT2A receptor; 49% in assay [1]; 96% on 5-HT7 receptor; -2% in assay [2]; 9% in assay [3]; 90% in assay [4]. Besides, the inhibition at 1 µM at 5-HT6 receptor worked out at 87%.

Consider `Cc1ccc(S(=O)(=O)NC2CCN(CCCc3noc4cc(F)ccc34)C2)cc1` (stereo not drawn) [Compound 209, N-[1-[3-(6-Fluoro-1,2-benzoxazol-3-yl)propyl]pyrrolidin-3-yl]-4-methyl-benzenesulphonamide], for which the inhibition at 1 µM was 86% at 5-HT2A receptor; 34% in assay [1]; 90% on 5-HT7 receptor; 6% in assay [2]; 11% in assay [3]; 64% in assay [4]. For the same molecule, on 5-HT6 receptor, the inhibition at 1 µM came to 62%.

Take `COc1ccc(S(=O)(=O)NC2CCN(CCCc3noc4cc(F)ccc34)C2)cc1` (stereo not drawn) [Compound 213, N-[1-[3-(6-Fluoro-1,2-benzoxazol-3-yl)propyl]pyrrolidin-3-yl]-4-methoxybenzenesulphonamide]: the inhibition at 1 µM on 5-HT2A receptor is 100%; in assay [1] it was 57%; at 5-HT7 receptor it was 93%; in assay [2] it was 12%; in assay [3], 63%; in assay [4], 81%. In addition, the inhibition at 1 µM on 5-HT6 receptor turned out to be 78%.

On to `Cn1ccc2c(S(=O)(=O)NC3CCN(CCCc4noc5cc(F)ccc45)C3)cccc21` (stereo not drawn) [Compound 219, N-[1-[3-(6-Fluoro-1,2-benzoxazol-3-yl)propyl]pyrrolidin-3-yl]-1-methyl-indole-4-sulphonamide], for which the inhibition at 1 µM at 5-HT2A receptor was found to be 99%; in assay [1], 81%; on 5-HT7 receptor, 96%; in assay [2], 52%; in assay [3], 85%; in assay [4], 96%. For the same molecule, at 5-HT6 receptor, the inhibition at 1 µM was 94%.

With `O=S(=O)(NCC1CCN(CCCc2noc3cc(F)ccc23)C1)c1ccc2c(c1)OCO2` (stereo not drawn) [Compound 235, N-[[1-[3-(6-Fluoro-1,2-benzoxazol-3-yl)propyl]pyrrolidin-3-yl]methyl]-1,3-benzodioxole-5-sulphonamide], the inhibition at 1 µM at 5-HT2A receptor turned out to be 91%; in assay [1], 41%; on 5-HT7 receptor it was 81%; in assay [2] it was 11%; in assay [3] it was 14%; in assay [4] it was 31%. Besides, the inhibition at 1 µM on 5-HT6 receptor came to 62%.

On to `O=S(=O)(NCC1CCN(CCCc2noc3cc(F)ccc23)C1)c1ccc(Cl)cc1` (stereo not drawn) [Compound 242, 4-Chloro-N-[[1-[3-(6-fluoro-1,2-benzoxazol-3-yl)propyl]pyrrolidin-3-yl]methyl]benzenesulphonamide], for which the inhibition at 1 µM on 5-HT2A receptor came to 99%; in assay [1] it was 71%; on 5-HT7 receptor it was 83%; in assay [2], 37%; in assay [3] it was 11%; in assay [4] it was 55%. For the same molecule, at 5-HT6 receptor, the inhibition at 1 µM turned out to be 60%.

Consider `O=S(=O)(NCC1CCN(CCCc2noc3cc(F)ccc23)C1)c1cccc(Cl)c1` (stereo not drawn) [Compound 243, 3-Chloro-N-[[1-[3-(6-fluoro-1,2-benzoxazol-3-yl)propyl]pyrrolidin-3-yl]methyl]benzenesulphonamide], for which the inhibition at 1 µM at 5-HT2A receptor was 90%; in assay [1], 47%; at 5-HT7 receptor it was 89%; in assay [2] it was 7%; in assay [3], 21%; in assay [4] it was 14%. The inhibition at 1 µM on 5-HT6 receptor stood at 75%.

As for `O=S(=O)(NCC1CCN(CCCc2noc3cc(F)ccc23)C1)c1ccccc1` (stereo not drawn) [Compound 245, N-[[1-[3-(6-Fluoro-1,2-benzoxazol-3-yl)propyl]pyrrolidin-3-yl]methyl]benzenesulphonamide], the inhibition at 1 µM on 5-HT2A receptor is 73%; in assay [1], 40%; at 5-HT7 receptor, 81%; in assay [2] it was 18%; in assay [3], 35%; in assay [4], -4%. The inhibition at 1 µM on 5-HT6 receptor came out at 57%.

Take `COc1cccc(S(=O)(=O)NCC2CCN(CCCc3noc4cc(F)ccc34)C2)c1` (stereo not drawn) [Compound 250, N-[[1-[3-(6-Fluoro-1,2-benzoxazol-3-yl)propyl]pyrrolidin-3-yl]methyl]-3-methoxy-benzenesulphonamide]: the inhibition at 1 µM came out at 87% at 5-HT2A receptor; 55% in assay [1]; 91% on 5-HT7 receptor; 23% in assay [2]; 30% in assay [3]; 18% in assay [4]. In addition, the inhibition at 1 µM on 5-HT6 receptor came to 74%.

Take `O=S(=O)(NCC1CCN(CCCc2noc3cc(F)ccc23)C1)c1ccc(F)cc1` (stereo not drawn) [Compound 252, 4-Fluoro-N-[[1-[3-(6-fluoro-1,2-benzoxazol-3-yl)propyl]pyrrolidin-3-yl]methyl]benzenesulphonamide]: the inhibition at 1 µM is 89% on 5-HT2A receptor; 43% in assay [1]; 90% at 5-HT7 receptor; -2% in assay [2]; 44% in assay [3]; 36% in assay [4]. In addition, at 5-HT6 receptor, the inhibition at 1 µM amounted to 75%.
